Where two headings read alike, the source gives them in different places. Where a SMILES comes first, the peptide text is derived from it.
What was measured:
SK-N-MC cells = assay: Cellular entry of FAM-labeled peptide, fluorescent confocal microscopy; format: cell-based, human; details: FAM-labeled peptide 1.5 µM, serum starved cells, confocal fluorescence
Procedure: (§1) MDA-MB-231 cells (1×10^5 cells per plate) were plated on 35 mm glass-bottom plates (MatTek Corporation, Ashland, MA), allowed to adhere overnight, then serum starved overnight and analyzed the following day in HBSS (Hank’s balanced salt solution). For real-time uptake of the FAM-labeled peptides, after recording background images, the FAM-labeled peptides were added and cells were imaged every two minutes over approximately 30 minutes. After 30 minutes, images were taken less frequently. Images from representative timepoints are shown. For overnight treatment, the cells were treated in serum-starved media, exchanged into HBSS the following day and imaged.
(§2) FAM-TE-64562 enters in SK-N-MC cells without any effect of EGF pretreatment. Confocal images of overnight serum starved MDA-MB-231 cells before treatment (0 min) and treated for 90 minutes (A) with 5.0 µM […], (B) with 1.25 µM FAM-Tat or (C) with 2.5 µM FAM-Tat for 60 minutes. (D) SK-N-MC were serum starved overnight and treated with FAM-TE-64562 (1.5 µM) for 16 minutes. (E) NR6 cells MC were serum starved overnight and treated with FAM-TE-64562 (5 µM) for 20 minutes. All scale bars are 20 µm. (TIF) Click here for additional data file.

NR6 cells = assay: as above; format: cell-based; details: FAM-labeled peptide 5 µM, serum starved cells, confocal fluorescence
Procedure: as §1, §2

MDA-MB-231 cells [1] = assay: Cell viability assay (CellTiter-Glo); format: cell-based, human
Text: Assays are run in triplicate.

A-549 cells = details: read-out: EC50 value; serum starved overnight, 24 h treatment; mean ± S.D. of two to three independent experiments
Procedure: (§3) Cells were plated into a 96-well plate (5,000 to 10,000 cells per well) in full growth media. The following day, media is exchanged for serum starved media (0.1% BSA in growth media without FBS) and incubated overnight. Cells were treated for 24 hours with peptides at varying concentrations range (0.78 to 200 µM). The cell viability is read using luminescent cell viability dye (CellTiter-Glo, Promega Corporation, USA) by adding 20 µL of dye to each well containing 100 µL of treated media. The cell viability is calculated by dividing each luminescent reading by the average of the luminescent readings for control, untreated cells. Assays are run in triplicate. Dose-response curves were generated and fitted in Prism 5.0 (GraphPad Software, Inc., USA). The EC50 values were generated using the log inhibitor-normalized response variable slope function (Y = 100/(1+10∧((LogEC50-X)*HillSlope)). EC50 values are shown with standard deviation values (S.D.) from at least three independent experiments. For comparison of MDA-MB-231 with HMEC, the cells were not serum starved and plated and treated in HMEC media.

[2] = tested on: HMEC (normal human mammary epithelial cells); details: read-out: EC50 value; treated in HMEC media, 24 h; mean ± S.D.
Procedure: as §3

[3] = tested on: IMR-90 normal lung fibroblasts; details: serum starved overnight, 24 h treatment; mean ± S.D.
Procedure: as §3

[4] = tested on: NR6 cells (EGFR null clone of NIH/3T3 fibroblasts); details: read-out: EC50 value; serum starved overnight, 24 h treatment; mean ± S.D. of two to three independent experiments
Procedure: as §3

MDA-MB-231 cells [5] = assay: Cellular entry of FAM-labeled peptides, live-cell fluorescent confocal microscopy; format: cell-based, human; details: N-terminally FAM-labeled peptide, 2.5 µM, serum starved cells in HBSS, live-cell confocal fluorescence
Procedure: as §1

[6] = tested on: MDA-MB-231 xenograft tumors; assay: MDA-MB-231 xenografts in nude mice; format: in vivo
Procedure: NCR-nude female athymic mice were purchased from Taconic Farms, Inc. Mice were injected in the flank region with 1.5×10^6 MDA-MB-231 cells, while anesthetized with ketamine and xylazine. Prior to treatment, tumors were measured in three dimensions using a caliper and tumor volume was calculated by multiplying the three measured dimensions by 0.5 (V = 0.5*l*w*h). Once the tumors reached a minimum size of 100 mm^3, mice were injected intraperitoneally, twice a week, with 200 µL of the TE-64562 peptide (40 mg/kg; 7 µmol/kg), Tat peptide in PBS (20 mg/kg; 7 µmol/kg) or PBS. Endpoints were defined as the tumor size reaching 2000 mm^3 or 20 mm in any dimension, significant weight loss occurring or if the mouse appearing unhealthy according to body conditioning scoring standards. For histological analysis, organs were collected post-sacrifice and fixed in 4% formaldehyde in PBS, followed by paraffin embedding. Sections (6 µm thick) were mounted onto positively charged slides and H&E stained. Images were captured at 20× resolution on a Zeiss Axioplan 2 microscope.

[7] = tested on: EGFR dimerization in MDA-MB-231 cells; assay: EGFR dimer detection, BS3 cross-linking and Western blot; format: cell-based, human; details: 25 µM, 30 minutes; reduction in the loading control (Stat3)
Procedure: Cells were plated in 10-cm dishes, grown to 80% confluence, serum starved overnight, treated and analyzed. For dose response assays, the peptides, EGFR-specific tyrosine kinase inhibitor (TKI) or control was added to each plate and incubated at 37°C for 30 minutes, followed by EGF (10 ng/mL) for an additional 10 minutes at 37°C. For timecourses, TE-64562 and/or EGF were added and the cells were incubated at 37°C for the indicated amounts of time. For EGFR dimer detection, cells were cross-linked after treatment using BS^3 crosslinker (bis[sulfosuccinimidyl] suberate, Thermo scientific, Inc) according to the manufacturer’s instructions. Immediately following treatment, cells were put on ice, washed twice with cold Tris-buffered saline (TBS, pH 7.4) and lysed with radio-immunoprecipitation buffer (50 mM Tris pH 7.5, 100 mM NaCl, 1% NP-40, 0.5% deoxycholate, 0.1% SDS, 1 mM EDTA and protease inhibitor cocktail). After protein concentration determination, cell lysates were analyzed by Western blot analysis with the indicated antibodies following standard procedures and visualized by chemiluminescence. Images were quantified using ImageJ Version 1.43 u.

CC[C@H](C)[C@H](NC(=O)[C@H](Cc1c[nH]cn1)NC(=O)[C@H](CCCNC(=N)N)NC(=O)[C@H](CCCNC(=N)N)NC(=O)[C@H](CCCNC(=N)N)NC(=O)CNC(=O)[C@H](CCCNC(=N)N)NC(=O)[C@H](CCCNC(=N)N)NC(=O)[C@H](CCCNC(=N)N)NC(=O)[C@H](CCC(N)=O)NC(=O)[C@H](CCCNC(=N)N)NC(=O)[C@H](CCCNC(=N)N)NC(=O)[C@H](CCCCN)NC(=O)[C@H](CCCCN)NC(=O)[C@H](CCCNC(=N)N)NC(=O)c1ccc2c(c1)C(=O)OC21c2ccc(O)cc2Oc2cc(O)ccc21)C(=O)N[C@H](C(=O)N[C@@H](CCCNC(=N)N)C(=O)N[C@@H](CCCCN)C(=O)N[C@@H](CCCNC(=N)N)C(=O)N[C@H](C(=O)N[C@@H](CC(C)C)C(=O)N[C@@H](CCCNC(=N)N)C(=O)N[C@@H](CCCNC(=N)N)C(=O)N[C@@H](CC(C)C)C(=O)N[C@@H](CC(C)C)C(=O)N[C@@H](CCC(N)=O)C(=O)N[C@@H](CCC(=O)O)C(=O)N[C@@H](CCCNC(=N)N)C(=O)O)[C@@H](C)O)C(C)C [FAM-conjugated TE-64562] (HELM PEPTIDE1{[O=C1OC2(c3ccc(O)cc3Oc3cc(O)ccc32)c2ccc(C(=O)[*:2])cc21].R.K.K.R.R.Q.R.R.R.G.R.R.R.H.I.V.R.K.R.T.L.R.R.L.L.Q.E.R}$$$$V2.0)
time until peptide entered cells (SK-N-MC cells): ≤ 15 min | time until peptide entered cells (NR6 cells): ≤ 15 min

CC[C@H](C)[C@H](NC(=O)[C@H](Cc1c[nH]cn1)NC(=O)[C@H](CCCNC(=N)N)NC(=O)[C@H](CCCNC(=N)N)NC(=O)[C@H](CCCNC(=N)N)NC(=O)CNC(=O)[C@H](CCCNC(=N)N)NC(=O)[C@H](CCCNC(=N)N)NC(=O)[C@H](CCCNC(=N)N)NC(=O)[C@H](CCC(N)=O)NC(=O)[C@H](CCCNC(=N)N)NC(=O)[C@H](CCCNC(=N)N)NC(=O)[C@H](CCCCN)NC(=O)[C@H](CCCCN)NC(=O)[C@@H](N)CCCNC(=N)N)C(=O)N[C@H](C(=O)N[C@@H](CCCNC(=N)N)C(=O)N[C@@H](CCCCN)C(=O)N[C@@H](CCCNC(=N)N)C(=O)N[C@H](C(=O)N[C@@H](CC(C)C)C(=O)N[C@@H](CCCNC(=N)N)C(=O)N[C@@H](CCCNC(=N)N)C(=O)N[C@@H](CC(C)C)C(=O)N[C@@H](CC(C)C)C(=O)N[C@@H](CCC(N)=O)C(=O)N[C@@H](CCC(=O)O)C(=O)N[C@@H](CCCNC(=N)N)C(=O)O)[C@@H](C)O)C(C)C [TE-64562] (H-RKKRRQRRRGRRRHIVRKRTLRRLLQER-OH)
EC50 (MDA-MB-231 cells [1]; cells not serum starved, plated and treated in HMEC media, 24 h, mean ± S.D., read-out: EC50): 7.4 ± 1.9 µM | EC50 (MDA-MB-231 cells [1]; serum starved overnight (0.1% BSA, no FBS), 24 h treatment, CellTiter-Glo, mean ± S.D. of at least three independent experiments, read-out: EC50± S.D.): 12.6 ± 2.3 µM | EC50 (A-549 cells): 6.1 ± 0.9 µM | EC50 [2]: 38.4 ± 6.1 µM | EC50 [3]: 174 ± 54 µM | EC50 [4]: 104 ± 9 µM | time until peptide entered cells (MDA-MB-231 cells [5]): approximately 10 minutes | toxicity in vivo ([6]; 40 mg/kg intraperitoneally bi-weekly): does not show any significant non-selective toxicity in vivo | body weight over the course of the study ([6]; 40 mg/kg intraperitoneally bi-weekly, versus Tat and saline groups): No significant difference in body weight | histological examination of post-treatment liver, spleen and kidney ([6]; end of 5 weeks of treatment, H&E): No differences between the treatment groups | toxicity to the cells in the dimerization experiment [7]: fairly toxic to the cells
